The text below walks through data of article PMC9774438, “Effects of Synthetic Short Cationic Antimicrobial Peptides on the Catalytic Activity of Myeloperoxidase, Reducing Its Oxidative Capacity” (Antioxidants, 2022).

As a reminder, the IC50 is the concentration that gives 50% inhibition. A high value points to weaker potency in that assay. As usually defined, the Ki is the equilibrium dissociation constant of an inhibitor or competing ligand from its target.

Test [1] concerns the target T1, myeloperoxidase (MPO) (Homo sapiens, UniProt P05164).
T1 construct: Native myeloperoxidase (MPO) was obtained from human leukocyte extract by successive chromatography on heparin-Sepharose and phenyl-agarose; from tissue; host or cells: human leukocyte extract
Kind of test: Measurement of sulfhydryl groups with MPO/H2O2 (DTNB). Format: biochemical. Particulars: for free sulfhydryl groups, percentage relative to CAMP + MPO without H2O2: 150 μM peptide, 1 μM MPO heme, 100 μM H2O2, 10 mM Na-phosphate pH 7.4, mean ± SD, * p < 0.05 where marked. The protocol: The peroxidase reaction was carried out in 10 mM Na-phosphate buffer, pH 7.4 (containing 0.2 mM DTPA), in a volume of 60 μl placed in the wells of a 96-well plate. Peptides were added to MPO (1 μM heme) to a concentration of 150 μM. Following 5 min of incubation, H2O2 (100 μM, final) was added to test samples to trigger the reaction. Control samples were the same except H2O2. The content of free sulfhydryl groups was estimated spectrophotometrically by using 5,5′-dithiobis(2-nitrobenzoic acid) (DTNB, Ellman’s reagent) prepared in 0.4 M Tris-HCl buffer, pH 9.0. At a desired time after the reaction was started, 120 μL aliquots of freshly prepared DTNB-containing buffer were added to one part of samples (160 μM DTNB, final) and […] of the buffer without DTNB was added to another part of the same samples. […] Absorbance in the absence of DTNB was subtracted from that in the presence of DTNB. The loss of sulfhydryl groups was expressed as a percentage relative to controls incubated without H2O2.
To determine an estimation of whether the cysteine residue of pept_1545 and Hm-AMP8 participated in MPO-mediated reactions, we compared the content of free sulfhydryl groups in the reaction mixtures of peptides (150 μM) with the MPO/H2O2 system (1 μM heme, 100 μM H2O2) and control samples containing peptides plus MPO with no added H2O2. Measurements of sulfhydryl groups were made at 5 min and 90 min of incubation (Table 2).

Test [2] deals with T1, myeloperoxidase (MPO). Kind of test: MPO chlorinating activity (Celestine Blue B assay). Particulars: for IC50: 0.8 nM MPO heme, 200 μM CB, 150 mM NaCl, 50 μM H2O2, 50 mM Na-acetate pH 5.5, 5 min preincubation. It counts as biochemical. Here is the method:
MPO chlorinating activity was evaluated fluorometrically using Celestine Blue B (CB) which was oxidized to fluorescent glycol (λex = 487 nm, λem = 578 nm) by taurine N-chloramine produced in the reaction of taurine with HOCl generated by MPO [39]. The assay was performed in 96-plate format. MPO was preincubated with peptides for 5 min in a volume of 100 μL, with the concentrations being: MPO, 1.6 nM heme and peptide, 16 nM–16 μM. Then, 100 μL aliquots of CB-containing mix (CB, 400 µM; H2O2, 100 µM; taurine, 4 mM; KI, 10 µM; NaCl, 300 mM; 50 mM Na-acetate buffer, pH 5.5) were added to MPO/peptide and to 100 μL of HOCl standards (0–150 μM). The fluorescence measurement was made with a CLARIOstar multimodal plate reader (BMG Labtech, Ortenberg, Germany) at 15 min after the reaction started. Fluorescence intensity detected for HOCl standards of HOCl was used for calculating the chlorinating activity as mole of HOCl per mole of MPO heme per second. To determine the type of CAMP-induced inhibition, KM and Vmax were obtained by varying substrates of MPO: NaCl in a final concentration from 25 to 300 mM, or H2O2 in a final concentration from 5 to 80 µM.
(§1) The Hannes-Wolf plots were made as ([Substrate]/V = f([Substrate]). KM was equal in magnitude to the intercept made on the abscissa axis by the approximating straight line; Vmax was calculated as a reciprocal value of the straight-line slope. The inhibition constant (Ki) for noncompetitive inhibition was calculated as follows: Ki = [I]/((Vmax − Vmax’)/Vmax’); Ki for competitive inhibition was calculated as follows: Ki = [I]/((KM’ − KM)/KM); Ki for mixed inhibition was calculated as follows: Ki = [I]/(((KM’ − KM)/KM)^2 + ((Vmax − Vmax’)/Vmax’))^2)^0.5; and Ki for uncompetitive inhibition was calculated as follows: Ki = [I]/(((KM − KM’)/KM’)^2 + ((Vmax – Vmax’)/Vmax’))^2)^0.5, where [I]—concentration of inhibitor (CAMP), KM—Michaelis constant without inhibitor, Vmax—maximal rate without inhibitor, KM’—Michaelis constant in the presence of inhibitor, Vmax’—maximal rate in the presence of inhibitor.
Chlorinating activity is a distinctive feature of MPO as compared with other peroxidases and it is an important property, enabling MPO to combat microbes. We tested whether the inhibitory effects of pept_1545 and Hm-AMP8 on peroxidase activity extend to MPO chlorinating activity. Chlorinating activity was measured using a fluorometric CB-based assay. To determine the concentration dependence of the effect of CAMPs on MPO chlorinating activity, the 0.008–8 μM concentration range (corresponding to 10–10,000 peptide molecules per heme) was used.

Test [3] has as its target T1, myeloperoxidase (MPO). Put plainly: MPO peroxidase activity (Amplex Red assay). Format: biochemical. Particulars: for IC50: 50 μM Amplex Red, 25 μM H2O2, 50 mM K-phosphate pH 7.4, 5 min preincubation; for Ki: 20 μM pept_1545 or 2 μM Hm-AMP8, 50 mM K-phosphate pH 7.4, Hanes–Woolf. Here is the method:
MPO peroxidase activity was evaluated fluorometrically using Amplex Red^TM reagent which was oxidized by MPO to the fluorescent resorufin (λex = 530 nm, λem = 590 nm). The assay was performed in 96-plate format. The final reaction mixture in 50 mM K-phosphate buffer (pH 7.4) was as follows: MPO, 8 nM heme; peptide, […]; H2O2, 25 μM; Amplex Red reagent, 50 μM. MPO was preincubated with peptides for 5 min in a volume of 100 μl. Then, Amplex Red was added, and the enzymatic reaction was initiated by adding H2O2 (a final probe volume of 200 μL per well). The fluorescence measurement was made with a CLARIOstar multimodal plate reader (BMG Labtech, Ortenberg, Germany) at 5 min after the beginning of the reaction. To determine the type of CAMP-induced inhibition, KM and Vmax were obtained by varying substrates of MPO: Amplex Red in a final concentration from 1 to 62.5 μM, or H2O2 in a final concentration from 0.625 to 20 μM.
as §1
From the experiments with varying concentrations of H2O2 (0.01–200 μM) and Amplex Red (6.25–100 μM), the optimal concentrations of 25 μM H2O2 and 50 μM Amplex Red were chosen for further work. The 0.8–50 μM concentration range (corresponding to 100–6250 peptide molecules per heme) was used to determine the concentration dependence of the effect of CAMPs on peroxidase activity of MPO.

In another test the test system is MPO. As to conditions: MPO/H2O2 system; ref [57]; cited from earlier work.
Setting [4] is: 8 μM pept_1545 or 0.8 μM Hm-AMP8, 25–300 mM NaCl, 50 μM H2O2, 0.8 nM MPO, 50 mM Na-acetate pH 5.5, Hanes–Woolf, read-out: Inhibition constant (Ki) towards Cl−.
Setting [5] is: Ki towards H2O2 and Cl– (abstract, range over both substrates), chlorinating activity, pH 5.5.
[6] abbreviates: 0.625–20 μM H2O2, 50 μM Amplex Red, 8 nM MPO heme, read-out: Inhibition constant (Ki) towards H2O2, peroxidase activity.
Where [7] appears, read: 1–62.5 μM Amplex Red, 25 μM H2O2, 8 nM MPO heme, read-out: Inhibition constant (Ki) towards Amplex Red.

Values joined by “and” are separate entries in the source; they are usually repeats but may differ in a detail not shown here. Identical values can stand only once. Where a SMILES comes first, the peptide text is derived from it.

T1 sequence (P05164 279-745 limits assumed): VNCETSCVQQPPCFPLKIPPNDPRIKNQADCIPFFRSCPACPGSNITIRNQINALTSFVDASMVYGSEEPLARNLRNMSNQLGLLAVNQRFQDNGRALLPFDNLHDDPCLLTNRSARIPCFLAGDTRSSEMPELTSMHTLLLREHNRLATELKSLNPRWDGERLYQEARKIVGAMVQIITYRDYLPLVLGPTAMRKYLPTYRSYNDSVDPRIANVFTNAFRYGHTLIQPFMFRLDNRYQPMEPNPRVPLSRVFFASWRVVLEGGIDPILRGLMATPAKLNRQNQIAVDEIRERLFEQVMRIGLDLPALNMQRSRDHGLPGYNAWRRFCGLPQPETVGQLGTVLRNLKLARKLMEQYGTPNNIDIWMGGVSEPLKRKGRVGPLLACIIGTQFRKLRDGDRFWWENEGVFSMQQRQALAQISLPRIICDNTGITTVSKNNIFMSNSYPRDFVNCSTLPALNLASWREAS
T1 sequence (P05164 165-273 limits assumed): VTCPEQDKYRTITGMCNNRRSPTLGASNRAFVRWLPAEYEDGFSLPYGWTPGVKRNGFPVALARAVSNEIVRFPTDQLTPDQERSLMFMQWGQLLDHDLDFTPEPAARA

For the molecule `CC[C@H](C)[C@H](NC(=O)[C@H](C)NC(=O)[C@H](CC(N)=O)NC(=O)[C@H](Cc1ccc(O)cc1)NC(=O)[C@@H]1CCCN1C(=O)[C@@H](NC(=O)[C@H](CCCCN)NC(=O)[C@H](Cc1ccc(O)cc1)NC(=O)[C@@H](NC(=O)[C@@H](NC(=O)[C@H](C)NC(=O)[C@@H](N)CCCNC(=N)N)C(C)C)[C@@H](C)CC)[C@@H](C)CC)C(=O)N[C@@H](C)C(=O)N[C@@H](CO)C(=O)N[C@@H](CCCNC(=N)N)C(=O)N[C@@H](Cc1c[nH]c2ccccc12)C(=O)N[C@H](C(=O)N[C@H](C(=O)N[C@@H](C)C(=O)N1CCC[C@H]1C(=O)N[C@@H](CCCCN)C(=O)N[C@@H](CCCCN)C(=O)N[C@@H](CS)C(N)=O)[C@@H](C)CC)[C@@H](C)CC` [Hm-AMP8] (H-RAVIYKIPYNAIASRWIIAPKKC-NH2), the entries for the “free sulfhydryl groups, percentage relative to CAMP + MPO without H2O2” value on myeloperoxidase (MPO) [1] (5 min incubation) and on myeloperoxidase (MPO) [1] (90 min incubation) were 93 ± 5% and “* 79 ± 6%”, respectively. Moreover, the IC50 against myeloperoxidase (MPO) [2] was 300 nM; on myeloperoxidase (MPO) [3] (8 nM MPO heme), 1700 nM and 2000 nM. The Ki on myeloperoxidase (MPO) [2] (8 μM pept_1545 or 0.8 μM Hm-AMP8, 5–80 μM H2O2, 150 mM NaCl, 0.8 nM MPO, 50 mM Na-acetate pH 5.5, Hanes–Woolf, read-out: Inhibition constant (Ki) towards H2O2, chlorinating activity) was 280 nM; at myeloperoxidase (MPO) [2] (setting [4]), 420 nM; on myeloperoxidase (MPO) [2] (setting [5]), 300 to 400 nM; on myeloperoxidase (MPO) [3] (setting [6]), 1790 nM; on myeloperoxidase (MPO) [3] (setting [7]) it was 1100 nM.

On to `CC[C@H](C)[C@H](NC(=O)[C@H](C)NC(=O)[C@H](CCCCN)NC(=O)CNC(=O)[C@@H](NC(=O)[C@H](CC(C)C)NC(=O)[C@@H](N)Cc1ccccc1)[C@@H](C)CC)C(=O)N[C@@H](CCCCN)C(=O)N[C@@H](CCCNC(=N)N)C(=O)N[C@@H](CCCCN)C(=O)N[C@@H](Cc1ccccc1)C(=O)N[C@@H](CS)C(=O)N[C@@H](CC(C)C)C(=O)N[C@@H](CCCNC(=N)N)C(=O)N[C@@H](CO)C(=O)N[C@H](C(=O)N[C@@H](Cc1c[nH]c2ccccc12)C(=O)N[C@@H](CC(N)=O)C(=O)N[C@@H](C)C(N)=O)C(C)C` [pept_1545] (H-FLIGKAIKRKFCLRSVWNA-NH2), for which the “decrease in amount of –SH groups” value on myeloperoxidase (MPO) [1] (5 min incubation with MPO/H2O2) is “about 20%”. Further, the figures for the “free sulfhydryl groups, percentage relative to CAMP + MPO without H2O2” value at myeloperoxidase (MPO) [1] (5 min incubation) and on myeloperoxidase (MPO) [1] (90 min incubation) were “* 80 ± 4%” and “* 76 ± 5%”, respectively. In addition, the IC50 against myeloperoxidase (MPO) [2] worked out at 7400 nM; against myeloperoxidase (MPO) [3] (8 nM MPO heme) it was 11200 nM. Moreover, the Ki is 19500 nM on myeloperoxidase (MPO) [2] (setting [4]), 11000 to 20000 nM at myeloperoxidase (MPO) [2] (setting [5]), 52800 nM at myeloperoxidase (MPO) [3] (setting [6]) and 48300 nM on myeloperoxidase (MPO) [3] (setting [7]).

On to “N-acetyl lysyltyrosylcysteine amide [KYC]”, for which, in the test on MPO, the formation of dityrosine result is “formation of dityrosine only by KYS”; the “oxidation of tyrosine residues by MPO” value is “MPO oxidized tyrosine residues in both KYC and KYS”.

Consider N-acetyl lysyltyrosylserine amide [KYS], for which, in the test on MPO, the formation of dityrosine entry was “formation of dityrosine only by KYS”; the “oxidation of tyrosine residues by MPO” value is “MPO oxidized tyrosine residues in both KYC and KYS”.
